Literature values, collected in patent US11986479B2 (priority 2022, dated 2024).
Read-outs that look alike come from different tables or passages of the source.

Columns and labels:
[1] = not given; remark: listed apart in the source
[2] = not given; remark: listed apart in the source

CCN(CC)C(=S)SSC(=S)N(CC)CC [Disulfiram, bis(diethylthiocarbamoyl) disulfide]
soluble in alcohol (alcohol): about 3.8 g in 100 mL | soluble in water (water): about 20 mg in 100 mL | diarrhea in list of adverse reactions ([1]; in vivo): not mentioned

C[C@@H]1C[C@H]2[C@@H]3CCC4=CC(=O)C=C[C@]4(C)[C@@]3(F)[C@@H](O)C[C@]2(C)[C@@]1(O)C(=O)CO [Dexamethasone, 9-fluoro-11β,17,21-trihydroxy-16α-methylpregna-1,4-diene-3,20-dione]
solubility in water (water): practically insoluble | stability in air ([2]; air): stable

Cn1cnc([N+](=O)[O-])c1Sc1ncnc2nc[nH]c12 [Azathoprine, 1H-Purine, 6-[(1-methyl-4-nitro-1H-imidazol-5-yl)thio]-]
solubility in alkali (solutions of alkali hydroxides / one molar equivalent of alkali): may be dissolved | solubility in water (water): insoluble | stability in the presence of sulfhydryl compounds ([2]; cysteine, glutathione, hydrogen sulfide): Conversion to mercaptopurine also occurs | stability in solution ([2]; excess sodium hydroxide (0.1N), especially on warming): hydrolysis to mercaptopurine occurs | stability in solution ([2]; neutral or acid pH): stable

Sc1ncnc2nc[nH]c12 [Mercaptopurine, 6H-purine-6-thione, 1,7-dihydro-, monohydrate]
solubility in ether (ether): practically insoluble | patients who experienced diarrhea ([1]; leukemia patients): 9%
